Entries after “also recorded” stand apart in the source; their conditions may differ. Read-outs that look alike come from different tables or passages of the source.
Key:
TRPM7 [1] = target: TRPM7 (Homo sapiens, UniProt Q96QT4); conditions: cited from earlier work
TRPM7 [2] = assay: Trpm7 mRNA level by qPCR in PC12^LEPRb cells; type: cell-based; conditions: 48 hr exposure
Description: FIG. 8A-8C illustrates exposure of leptin to Leprb-expressing PC12^LEPRb cells increased Trpm7 promoter activity and gene transcription. (A) PC12^LEPRb cells transfected with either pEZX-Luc-vector (empty, no insert) or pEZX-Luc-Trpm7 (promoter insert) were exposed to 1 ng/ml leptin for 48 hr prior to measurement of luciferase activity. B and C) Gene expression and promoter methylation of Trpm7 in cells exposed to leptin or 5-aza-dC for 48 hr. Trpm7 mRNA level was quantitated by qPCR. Methylation status of CpG sites in Trpm7 promoter were determined by bisulfite sequencing. A total of 40 CpG sites per clone and 6 individual clones for each treatment group were sequenced. Each row of circles represented an individual clone. Putative TF binding sites such as STAT3 and NFkB were shown in scale in Trpm7 promoter. TSS: transcription start site. Boxed regions highlight the CpG sites showing differential methylation in cells exposed to leptin or 5-aza-dC. (p<0.05). Values were mean±SD.
Leptin can regulate gene transcription by binding to ObRb to activate Janus kinase 2/signal transducers and activator of transcription 3 (JAK2/STAT3) as well as ERK1/2 and PI3K pathways (FIG. 7), which are known to regulate a wide variety of genes. To examine the possible regulation of Trpm7 transcription by leptin, we searched the Trpm7 promoter sequence for potential binding sites for transcription factors (TFs). […]

[3] = test system: isolated CB-CSN preparations; assay: hypoxia-induced CSN activity in isolated superfused CB-CSN preparation; set-up: species or system C57B1/6J (WT) mice; conditions: effect of nonspecific TRP channel antagonist
From the text: SKF and 2-APB data were pooled, *p<0.05.
Leptin and carotid body function CBs are major peripheral O2 sensors, which initiate chemosensory inputs in the CSN to the respiratory centers via nucleus solitarius to evoke acute hyperventilation, and the rostral ventrolateral medulla presympathetic neurons to stimulate SNS activity. CB plays critical roles in the development of hypertension during chronic intermittent hypoxia (CIH); and the sympatho-excitation and destabilization of breathing during heart failure. However, the connection between CB and the obesity-associated hypertension and respiratory instability has not been clearly established. […] The effect of leptin on isolated CB-CSN preparations from C57B1/6J (WT) mice was studied.

rat glomus cells = conditions: cited from earlier work
TRPM7 [4] = target: T1, TRPM7 (Rattus norvegicus, UniProt Q925B3); assay: non-selective cation (TRPM7) current, amphotericin-B perforated-patch recording in PC12^LEPRb cells; type: cell-based; conditions: for leptin-enhanced non-selective cation current / naltriben-induced increase of the current: effect of TRPM7 antagonist
T1 construct: PC12 cells are oxygen-sensitive, express high level of TRPM7; endogenous in cells; host or cells: PC12^LEPRb cells (PC12 transfected with leptin receptor LEPRb; TRPM7 itself not transfected)
T1 sequence (Q925B3 whole entry): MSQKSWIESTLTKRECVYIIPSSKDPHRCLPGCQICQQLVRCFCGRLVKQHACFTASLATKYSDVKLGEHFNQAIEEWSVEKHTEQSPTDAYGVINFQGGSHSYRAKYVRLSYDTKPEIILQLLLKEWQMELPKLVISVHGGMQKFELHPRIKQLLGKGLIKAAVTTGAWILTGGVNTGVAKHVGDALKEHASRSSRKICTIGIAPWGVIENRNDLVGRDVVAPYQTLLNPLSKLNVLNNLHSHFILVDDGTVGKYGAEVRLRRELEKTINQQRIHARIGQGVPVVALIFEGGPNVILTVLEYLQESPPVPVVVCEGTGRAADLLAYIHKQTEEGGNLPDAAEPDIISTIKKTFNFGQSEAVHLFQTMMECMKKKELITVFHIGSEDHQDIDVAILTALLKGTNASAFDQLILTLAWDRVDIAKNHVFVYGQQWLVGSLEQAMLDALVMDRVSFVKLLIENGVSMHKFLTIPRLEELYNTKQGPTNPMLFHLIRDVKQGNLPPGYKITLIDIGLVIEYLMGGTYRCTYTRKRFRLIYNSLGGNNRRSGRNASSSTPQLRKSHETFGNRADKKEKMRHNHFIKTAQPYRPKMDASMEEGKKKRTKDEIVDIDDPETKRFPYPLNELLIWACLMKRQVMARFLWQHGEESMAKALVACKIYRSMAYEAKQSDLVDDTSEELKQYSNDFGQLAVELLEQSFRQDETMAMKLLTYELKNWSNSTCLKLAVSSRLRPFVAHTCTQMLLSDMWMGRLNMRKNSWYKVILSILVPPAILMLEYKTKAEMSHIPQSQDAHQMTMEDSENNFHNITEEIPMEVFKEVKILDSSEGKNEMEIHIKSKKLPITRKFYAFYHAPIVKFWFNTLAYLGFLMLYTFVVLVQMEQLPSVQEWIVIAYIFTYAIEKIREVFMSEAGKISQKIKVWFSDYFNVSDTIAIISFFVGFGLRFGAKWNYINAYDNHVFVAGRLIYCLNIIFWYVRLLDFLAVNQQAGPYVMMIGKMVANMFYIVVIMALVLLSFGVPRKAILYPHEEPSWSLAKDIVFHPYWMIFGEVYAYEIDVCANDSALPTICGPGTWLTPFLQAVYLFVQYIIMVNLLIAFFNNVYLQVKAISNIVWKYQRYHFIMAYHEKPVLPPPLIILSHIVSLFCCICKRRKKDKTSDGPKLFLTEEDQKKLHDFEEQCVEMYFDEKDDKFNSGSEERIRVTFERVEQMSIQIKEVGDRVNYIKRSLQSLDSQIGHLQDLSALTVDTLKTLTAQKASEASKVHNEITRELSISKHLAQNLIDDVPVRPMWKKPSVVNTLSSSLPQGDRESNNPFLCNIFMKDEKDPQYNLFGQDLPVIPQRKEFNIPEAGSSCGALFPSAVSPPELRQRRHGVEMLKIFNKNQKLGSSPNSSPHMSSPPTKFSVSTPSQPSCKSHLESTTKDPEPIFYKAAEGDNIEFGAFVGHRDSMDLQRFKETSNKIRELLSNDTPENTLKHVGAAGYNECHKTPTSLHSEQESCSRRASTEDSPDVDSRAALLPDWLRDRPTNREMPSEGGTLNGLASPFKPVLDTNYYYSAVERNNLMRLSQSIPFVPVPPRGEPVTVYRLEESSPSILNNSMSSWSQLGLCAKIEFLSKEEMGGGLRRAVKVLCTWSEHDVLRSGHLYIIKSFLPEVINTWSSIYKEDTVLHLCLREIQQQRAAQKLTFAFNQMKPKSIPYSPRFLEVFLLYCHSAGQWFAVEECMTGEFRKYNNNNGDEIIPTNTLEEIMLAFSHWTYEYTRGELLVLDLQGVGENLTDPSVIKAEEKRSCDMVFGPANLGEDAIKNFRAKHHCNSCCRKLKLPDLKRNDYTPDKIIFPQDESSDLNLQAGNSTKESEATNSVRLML
From the text: FIG. 5A-5C illustrates leptin enhances TRPM7 current in leptin receptor expressing PC12 cells.
Leptin can regulate TRPM7 channel activity. Leptin exerts its action by binding to the long form of leptin receptors (LEPRb, ObRb), which is the only functional isoform of leptin receptor. The possible effect of leptin on TRPM7 channel activity was investigated, by using LEPRb expressing adrenal pheochromocytoma PC12 (PC12^LEPRb) cells as the cell model, because PC12 cells are oxygen-sensitive, express high level of TRPM7 and have been used widely in the studies of chemoreception. Non-selective cation current was recorded using amphotericin-B perforated-patch technique in the absence of extracellular and intracellular K^+ (replaced by Cs^+) and Mg^2+, after VDCC was blocked by nifedipine and Cl^− currents were inhibited by DIDS and niflumic acid. Voltage-ramp of −100 to +100 mV elicited an outward rectifying current that resembled TRPM7 current reported in other cell types. […] The leptin-induced current was not observed in PC12 cells transfected with a control plasmid (data not shown). The present invention provides the first evidence showing activation of leptin receptor is capable of enhancing TRPM7 activity, and it supports our hypothesis that leptin may enhance CB activity through regulation of TRPM7 activity.
Obesity is a leading cause of high cardiovascular morbidity and mortality. It is characterized by an increased leptin level, which has been implicated in increased sympathetic activity and the pathogenesis of hypertension. However, the mechanism by which leptin enhances sympathetic activity is unclear. Leptin receptors (LEPRs) are expressed in the carotid bodies, the most important arterial chemoreceptors for the cardiovascular-respiratory chemoreflex. Since leptin is known to regulate many different ion channels, we hypothesize that leptin may exert its effects through modulation of TRPM7 channel activity. To test this hypothesis, the inventors used LEPR (LEPRb) expressing pheochromocytoma (PC12^LEPRb) cells, which expresses high levels of TRPM7 channels, as the cell model. Non-selective cation channels were recorded under amphotericin-B perforated-patch techniques with K^+ replaced by Cs^+ in the presence of voltage-gated Ca^2+ channel and Cl^− channel blockers. Voltage-ramp from −100 to 100 mV activated an outward-rectifying current. Removal of extracellular divalent ions enhanced the inward current, consistent with the inward divalent ion selectivity of TRPM7.

[5] = mice; cited from earlier work
C57BL/6J mice [6] = assay: telemetric blood pressure in mice, leptin-induced hypertension; type: in vivo, mouse; conditions: FTY720 SC 0.1 mg/day (approximately 3 mg/kg/day) with leptin
Description: Leptin signals in the CB to increase blood pressure. Male C57BL/6J mice, n=6 housed in a 12 hr light/dark cycle underwent telemetry implantation (Data Sciences) in the left femoral artery as we have described. […] After 4 day recovery mice were treated with vehicle (saline) regaining weight. On Day 17th of the protocol, carotid sinus nerve dissection (CSND, CB denervation) was performed bilaterally. After 1 week recovery, leptin and vehicle infusions were repeated. […] In contrast, CB denervation greatly modified cardiovascular effects of leptin. Indeed, in mice with intact carotid bodies leptin increased mean arterial pressure by 13 mm Hg during the day and by 16 mm Hg at night (FIG. 16A). […] Thus, leptin increases blood pressure acting in the CB.
FTY720 abolishes leptin-induced hypertension. There are multiple TRPM7 inhibitors available. We used a potent TRPM7 inhibitor FTY720 for several reasons. FTY720 is a novel immunomodulator and a structural homolog of shingosine-1-phosphate (S1P) blocking S1P effects in many diseases, including atherosclerosis, cancer, asthma, autoimmune diseases and acute lung injury. First, FTY270 has already been approved by FDA for multiple sclerosis (fingolimod). […] The experiment was performed in lean (24-26 g) C57BL/6J mice (n=5). Telemetry for continuous blood pressure recording was inserted. After 5 day recovery, mice were treated with leptin for 3 days as above. The pump was removed. After 7 day recovery, leptin was reinfused as above, but FTY720 was infused SC simultaneously at 0.1 mg/day (approximately 3 mg/kg/day).
Obesity leads to cardiovascular morbidity and mortality acting via multiple mechanisms including hypertension and obstructive sleep apnea. High levels of leptin have been associated with both conditions. The carotid bodies (CB) express leptin receptor (LepR), but the mechanism of leptin in CB is unknown. […] (CSND). In mice with intact CB, leptin increased mean arterial pressure by 13 mm Hg during the day and by 16 mm Hg at night (p=0.003 for the effect of leptin). […] Leptin receptor expression in carotid bodies of leptin receptor deficient db/db mice led to the same effect (n=6, p<0.05). […] Finally, the inventors tested the effect of a Trpm7 inhibitor on leptin-induced hypertension. The inventors performed blood pressure monitoring in male C57BL/6J mice (n=5˜9) at baseline, during leptin infusion with or without Trpm7 inhibitor, FTY720 (3 mg/kg/day, sc, n=5) for 24 hrs. […] The inventors conclude that leptin increases blood pressure acting in the CB via the Trpm7 channel.

[7] = humans; cited from earlier work
C57BL/6J mice [8] = assay: minute ventilation and hypoxic ventilatory response (HVR) in awake lean mice; type: in vivo, mouse; conditions: NS8593 10 mg/kg/day subcutaneously via osmotic pump for 3 days with leptin
Description: Leptin increases the HVR in lean mice. Minute ventilation (VE) was measured at normoxic conditions and during 3-5 min exposure to 10% O2 in awake lean male C57BL/6J mice, n=4, at baseline and during leptin administration (30 μg/day for 3 days via a subcutaneous osmotic pump). Serum leptin levels increased from 0.8±0.2 ng/ml to 33.2±1.9 ng/ml, which was similar to previously reported in DIO mice and obese humans, and then returned to the baseline. Mice decreased food intake and lost weight. Leptin increased VE at baseline as a result of an increase in the metabolic rate (FIG. 10). Leptin increased the HVR by greater than 60%.
Trpm7 inhibition prevents effects of leptin on the HVR. […] Male C57BL/6J mice (n=2) were treated with leptin for 3 days as described above. After 5 day recovery, leptin and a TRPM7 blocker NS8593 (10 mg/kg/day) were administered subcutaneously via an osmotic pump for 3 days. Mice reduced food intake and lost weight with leptin, regardless of the TRPM7 inhibitor.

TRPM7 (Homo sapiens, UniProt Q96QT4), sequence (Q96QT4 whole entry, species assumed): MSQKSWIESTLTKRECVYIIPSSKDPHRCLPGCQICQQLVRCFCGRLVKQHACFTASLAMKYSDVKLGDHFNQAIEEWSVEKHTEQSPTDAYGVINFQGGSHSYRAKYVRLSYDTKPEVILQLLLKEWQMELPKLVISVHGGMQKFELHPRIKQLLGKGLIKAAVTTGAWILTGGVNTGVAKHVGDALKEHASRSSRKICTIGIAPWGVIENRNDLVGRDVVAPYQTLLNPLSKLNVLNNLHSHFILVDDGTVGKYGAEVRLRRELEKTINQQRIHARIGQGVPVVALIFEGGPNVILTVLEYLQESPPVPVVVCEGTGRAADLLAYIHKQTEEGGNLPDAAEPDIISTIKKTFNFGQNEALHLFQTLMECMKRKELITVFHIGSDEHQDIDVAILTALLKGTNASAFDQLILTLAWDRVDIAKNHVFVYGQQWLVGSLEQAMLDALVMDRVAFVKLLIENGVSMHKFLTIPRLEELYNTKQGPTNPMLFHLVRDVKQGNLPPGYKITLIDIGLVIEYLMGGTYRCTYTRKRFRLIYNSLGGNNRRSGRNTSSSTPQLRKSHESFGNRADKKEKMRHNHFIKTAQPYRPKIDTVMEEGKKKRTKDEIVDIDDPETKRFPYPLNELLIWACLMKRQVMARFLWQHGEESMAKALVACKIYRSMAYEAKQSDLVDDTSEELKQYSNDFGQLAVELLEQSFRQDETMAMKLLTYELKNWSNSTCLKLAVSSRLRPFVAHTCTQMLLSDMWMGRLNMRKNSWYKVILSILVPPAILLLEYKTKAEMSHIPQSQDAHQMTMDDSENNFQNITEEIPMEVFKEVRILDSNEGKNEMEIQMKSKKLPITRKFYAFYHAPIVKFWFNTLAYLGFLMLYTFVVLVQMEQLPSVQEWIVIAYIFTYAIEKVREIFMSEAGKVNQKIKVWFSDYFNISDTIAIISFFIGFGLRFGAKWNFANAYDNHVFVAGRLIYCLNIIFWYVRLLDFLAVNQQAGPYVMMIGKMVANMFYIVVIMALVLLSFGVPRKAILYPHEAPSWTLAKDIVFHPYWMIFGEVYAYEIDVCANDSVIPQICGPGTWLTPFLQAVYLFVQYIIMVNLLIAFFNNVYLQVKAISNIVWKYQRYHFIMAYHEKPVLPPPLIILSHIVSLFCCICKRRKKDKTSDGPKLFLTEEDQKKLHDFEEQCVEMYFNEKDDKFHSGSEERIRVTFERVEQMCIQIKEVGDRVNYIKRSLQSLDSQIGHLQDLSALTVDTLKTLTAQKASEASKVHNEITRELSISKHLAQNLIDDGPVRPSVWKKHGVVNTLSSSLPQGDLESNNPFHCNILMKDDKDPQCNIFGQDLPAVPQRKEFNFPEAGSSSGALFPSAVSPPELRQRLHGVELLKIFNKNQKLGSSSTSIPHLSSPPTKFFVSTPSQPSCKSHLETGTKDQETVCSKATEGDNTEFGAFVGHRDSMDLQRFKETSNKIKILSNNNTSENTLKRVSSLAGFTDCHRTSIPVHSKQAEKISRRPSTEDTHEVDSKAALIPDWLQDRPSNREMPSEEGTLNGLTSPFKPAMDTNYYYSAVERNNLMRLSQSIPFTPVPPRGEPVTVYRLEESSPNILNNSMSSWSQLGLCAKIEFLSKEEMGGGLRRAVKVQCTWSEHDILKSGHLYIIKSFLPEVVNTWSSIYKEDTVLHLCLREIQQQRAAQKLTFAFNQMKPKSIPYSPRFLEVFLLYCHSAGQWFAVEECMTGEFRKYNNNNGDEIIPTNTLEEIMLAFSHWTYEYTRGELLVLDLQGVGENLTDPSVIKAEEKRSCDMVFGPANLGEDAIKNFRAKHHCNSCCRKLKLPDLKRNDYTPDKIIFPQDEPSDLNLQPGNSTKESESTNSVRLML

SMILES: Cc1ccc(C(C)C)cc1O [carvacrol]
- TRPM7 channel activity (TRPM7 [1]): inhibited

SMILES: Nc1ncn([C@H]2C[C@H](O)[C@@H](CO)O2)c(=O)n1 [5-aza-dC]
- Trpm7 mRNA level (TRPM7 [2]): increased

SMILES: NCCOB(c1ccccc1)c1ccccc1 [2-APB, 2-aminoethoxydiphenylborane]
- leptin-enhanced hypoxia-induced CSN activity [3]: blocked
- TRPM7 channel activity (TRPM7 [1]): inhibited
- elevation of [Ca2+]i induced by hypoxia, NaCN and FCCP (rat glomus cells): inhibited

SMILES: COc1ccc(CCCOC(Cn2ccnc2)c2ccc(OC)cc2)cc1 (stereo not shown) [SKF96365]
- leptin-enhanced hypoxia-induced CSN activity [3]: dampened; also recorded: blocked

SMILES: CCCCCCCCCCCCC/C=C/[C@@H](O)[C@@H](N)CO [sphingosine]
- TRPM7 channel activity (TRPM7 [1]): inhibited

SMILES: CCCCCCCCc1ccc(CCC(N)(CO)CO)cc1 [FTY720, 2-amino-2-[2-(4-octylphenyl)ethyl]propane-1,3-diol]
- leptin-enhanced non-selective cation current (TRPM7 [4]): significantly inhibited; also recorded: completely blocked
- naltriben-induced increase of the current (TRPM7 [4]): abolished
- leptin-enhanced non-selective cation current (TRPM7 [4]; listed as FTY120): almost completely abolished
- half-life [5]: 19 to 28 h
- leptin-induced hypertension (C57BL/6J mice [6]): completely abolished; also recorded: prevented
- TRPM7 channel activity (TRPM7 [1]): inhibited
- half-life [7]: 170 h

SMILES: Cl.c1ccc2c(c1)CCC[C@H]2Nc1nc2ccccc2[nH]1 [NS8593, N-[(1R)-1,2,3,4-Tetrahydro-1-naphthalenyl]-1H-Benzimidazol-2-aminehydrochloride]
- basal ventilation (C57BL/6J mice [8]): without any effect
- leptin-induced hypoxic hyperventilation (VE during acute hypoxia) (C57BL/6J mice [8]; 10 mg/kg/day): abolished; also recorded: prevented
- leptin-induced increase in the HVR (C57BL/6J mice [8]; 10 mg/kg/day): abolished; also recorded: abolishing
- leptin-enhanced non-selective cation current (TRPM7 [4]): completely blocked; also recorded: almost completely abolished
- naltriben-induced increase of the current (TRPM7 [4]): abolished
- TRPM7 channel activity (TRPM7 [1]): inhibited

SMILES: Oc1ccc2c3c1O[C@H]1c4oc5ccccc5c4C[C@@]4(O)[C@@H](C2)N(CC2CC2)CC[C@]314 [naltriben]
- outward rectifying non-selective cation (TRPM7) current (TRPM7 [4]; effect of TRPM7 agonist (50 μM elsewhere in the source), voltage-ramp −100 to +100 mV): significant augmentation; also recorded: significant increase
- TRPM7 channel activity (TRPM7 [1]): activated
